{"source": "patent US7825256B2", "about": "“Inducible nitric oxide synthase dimerization inhibitors” (Kalypsys, Inc., priority 2004, dated 2010)", "test_system": "rat", "experiment": "Carrageenan test (inflamed pain)", "assay_type": "in vivo", "details": "inhibition class", "description": "Injection of carrageenan subcutaneously into the hind foot (paw) of a rat induces robust inflammation and pain. The inflammatory response begins 1-2 hrs post-carrageenan injection and persists for at least five hours following inoculation. In addition, the rat's inflamed hind paw is sensitive to noxious (hyperalgesia) or innocuous (allodynia) stimuli, compared to the contralateral hind paw. Compounds can be evaluated in this model for anti-hyperalgesia and anti-inflammatory activity. […] It is possible that some compounds will affect the inflamed paw and not affect the responses of the contralateral paw.\nEmbodiments of the carrageenan foot edema test are performed with materials, reagents and procedures essentially as described by Winter, et al., (Proc. Soc. Exp. Biol. Med., 111, 544 (1962)). […] The rats are evaluated for their responsiveness to noxious (paw pinch, plantar test) or innocuous (cold plate, von Frey filaments) stimuli.\nIn a prophylactic embodiment, following determination of “Pre-carrageenan” responses, a subplantar injection of the test compound or a placebo are administered. […] Three hours (and optionally five hours) after carrageenan injection, the rats are evaluated for their responsiveness to noxious or innocuous stimuli and the paw volume was again measured. […]"}
{"smiles": "CN(CCCNCc1ccc2c(c1)OCO2)c1nc(-n2ccnc2)ns1", "note": "[Example 2, N′-Benzo[1,3]dioxol-5-ylmethyl-N-(3-imidazol-1-yl-[1,2,4]thiadiazol-5-yl)-N-methyl-propane-1,3-diamine]", "values": [{"measurement": "Carrageenan Inflamed Pain at 30 mg/kg", "result": "− ((−) = <40% inhibition)"}]}
